We go through five compounds from patent publication US8592600B2, “Solid state forms of racemic ilaprazole” (Il Yang Pharmaceutical Company, Ltd., priority 2006, dated 2013).

The structures appear in SMILES notation. “Also recorded” adds a separate entry of the source.

Series [1] in a line: Solubility of racemic ilaprazole forms in various ethanol solutions (100-50% ethanol) with various apparent pHs, 1 hour. The series is classed as physicochemical. The settings on record: comparison between Forms A, B, F. How it is done:
The solubility of racemic ilaprazole, Forms A, B, and F, were analyzed by exposing them to various ethanol solutions having various pHs for 1 hour. Duplicate analysis was performed for each sample on a second day. The solubility in 100% ethanol (with no pH adjustment) is shown in the first column. Various other aqueous solutions (87.5%, 75%, 62.5%, and 50% ethanol) with varying apparent pHs (7, 8, 9, 10, and 11) were also evaluated. All of the values below are the average of two duplicate preparations analyzed on different days.

The nature of series [2]: Dynamic Vapor Sorption/Desorption (DVS). The series is classed as physicochemical. The settings on record: for weight loss at 5% RH / weight loss from 95 to 5% RH / weight gain from 5 to 95% RH: DVS isotherm; for weight loss from 95 to 5% RH: desorption; for weight gain from 5 to 95% RH: sorption. The method, then: Dynamic Vapor Sorption/Desorption (DVS): Data were collected on a VTI SGA-100 moisture balance system. For sorption isotherms, a sorption range of 5 to 95% relative humidity (RH) and a desorption range of 95 to 5% RH in 10% RH increments were used for analysis. The samples were not dried prior to analysis. Equilibrium criteria used for analysis were less than 0.0100% weight change in 5 minutes with a maximum equilibration time of 3 hours if the weight criterion was not met. Data were not corrected for the initial moisture content of the samples.

Series [3] can be described thus: Bioavailability study of ilaprazole from 40-mg delayed-release tablets, plasma pharmacokinetics. The settings on record: for AUC lower than Form A, point estimate / Cmax lower than Form A, point estimate: ANOVA point estimate, relative to 40-mg tablet as Form A; for half-life, relative: humans, Forms A, B, F compared; for mean AUC∞ lower than value observed for Form A / mean Cmax lower than value observed for Form A: mean values; for mean AUC∞ lower than value observed for Form A / mean Cmax lower than value observed for Form A / mean AUC, rank among forms / mean Cmax, rank among forms / mean apparent oral clearance, rank among forms / mean apparent volume of distribution, rank among forms: single 40 mg oral dose; for t1/2z, harmonic mean / tlag, Mean / tmax, Mean: single 5 mg oral dose (table title; text: 40 mg delayed-release tablet); for lower bound of 90% confidence interval for ratio of central values, AUC / lower bound of 90% confidence interval for ratio of central values, AUC∞ / lower bound of 90% confidence interval for ratio of central values, Cmax: relative to Form A (Regimen A), bioequivalence limit 0.80; for AUCt, Point Estimate (ratio of central values) vs. Regimen A / AUC∞, Point Estimate (ratio of central values) vs. Regimen A / Cmax, Point Estimate (ratio of central values) vs. Regimen A: relative to Regimen A (Form A), Regimen B = Form B, Regimen C = Form F, single 40-mg delayed-release tablet. It counts as in vivo, human. The source says:
The bioavailability of ilaprazole from delayed-release tablets containing racemic ilaprazole, Form A, F, and B. This study were to assessed the bioavailability of ilaprazole from ilaprazole 40-mg delayed-release tablets manufactured as described in Example 8.
The subjects were randomly assigned in equal numbers to one of three sequence groups (Table 32).
Subjects received all regimens in a crossover fashion, according to the sequence group to which they were randomized. For each period, confinement began on Day 1 and ended on Day 2 after all procedures had been completed. There was a washout interval of at least 5 days between the doses of each period. Each subject received 3 doses of racemic ilaprazole 40 mg, each dose administered with 240 mL of water. On Day 1 of each period, subjects received the regimen to which they had been assigned at approximately 0800 hours. Subjects were fasted for 10 hours prior to dosing and remained fasted until 4 hours postdose when a standardized lunch was served.
Ilaprazole, ilaprazole sulfide and ilaprazole sulfone plasma concentrations were determined from 3 mL blood samples collected starting on Day 1 at 0 hour (predose), and 0.5, 1, 1.5, 2, 3, 4, 5, 6, 8, 10, 12, 14, 16, 20, 24, 28 and 32 hours postdose in each period. Plasma concentrations of ilaprazole were determined using a validated LC-MS/MS method at PPD (Middleton, Wis.). The lower limit of quantitation (LLOQ) for ilaprazole and its metabolites was 5.00 ng/mL with a 0.100 mL aliquot of plasma.
Pharmacokinetic parameters for ilaprazole were estimated using standard noncompartmental methods with WinNonlin Professional Version 4.1 (Pharsight Co., Mountain View, Calif.).
Pharmacokinetic endpoints included time to reach the first quantifiable concentration (tlag), time to reach the peak concentration (tmax), the peak plasma concentration (Cmax), area under the plasma concentration versus time curve (AUC) from time zero to the last quantifiable concentration (AUCt) and to infinity (AUC∞), terminal-phase elimination half-life (t1/2z), apparent oral clearance (CL/F) and apparent volume of distribution (Vz/F).
For ilaprazole tlag, tmax, and the natural logarithms of Cmax and AUCs, an analyses of variance (ANOVA) model was fitted that included fixed effects of sequence, period, and crystal form as well as a random effect of subject nested within sequence. Pairwise comparisons between racemic ilaprazole, Forms B or F and Form A, were conducted. Ninety percent confidence intervals for relative bioavailability between regimens were computed.

The test system of another series is gastric acid. Put plainly: Phase 1 and Phase 2 clinical studies conducted with ilaprazole. The series is classed as in vivo, human.
A short description of series [4]: Solid state stability of the crystalline forms. The series is classed as physicochemical.
Series [5] in a line: Dissolution rate of delayed release tablets, 40 mg (USP <711>, Delayed Release Method A). It counts as physicochemical. The settings on record: 40 mg tablet, dissolution buffer. How it is done:
Delayed release tablets containing 40 mg racemic ilaprazole, Form A, B, or F, were prepared and the dissolution rates of the tablets studied. The tablets were identical, with the exception of the crystalline form of ilaprazole. The qualitative and quantitative compositions of racemic ilaprazole delayed release tablets, 40 mg (inclusive of the compositions made using Forms A, B, and F) are described in Table 30. The dissolution rate procedure was modified to be consistent with USP <711>, Delayed Release Method A and to change the UV detection wavelength in the acid stage of the test. For the acid stage, a wavelength of 340 nm was used, and for the buffer stage, a wavelength of 306 nm was used. The desired dissolution profile was Q=70% in 60 minutes.

[6] abbreviates: plasma ilaprazole, healthy adult subjects, fasted.
[7] abbreviates: plasma ilaprazole, healthy adult subjects, single 40 mg oral dose (table title; text: 40 mg delayed-release tablet), fasted.
[8] abbreviates: human, plasma, po, 40 mg, plasma ilaprazole, healthy adult subjects, single 40 mg oral dose (table title; text: 40 mg delayed-release tablet), fasted.

As for `COc1ccnc(C[S+]([O-])c2nc3cc(-n4cccc4)ccc3[nH]2)c1C` (racemic) [Form F, 2[[(4-methoxy-3-methyl-2-pyridinyl)-methyl]sulfinyl]-5-(1H-pyrrol-1-yl) 1H-Benzimidazole], the “relative solubility in aqueous solutions/solvents” value in series [1] is reported as “A<F<B; also recorded: more soluble in aqueous solvents than Form A”. In series [2], the hygroscopicity result is recorded as “slightly hygroscopic”, the “weight loss at 5% RH” value stood at 0.04%, the “weight loss from 95 to 5% RH” value was found to be 1.33% and the “weight gain from 5 to 95% RH” value was determined as 1.05%. Besides, in series [3], the “AUC lower than Form A, point estimate” value is reported as 15-17%; the “Cmax lower than Form A, point estimate” value was “approximately 15%”; the “half-life, relative” value was “longest half-life”; the “mean AUC∞ lower than value observed for Form A” value is reported as approximately 14%. In addition, in series [3], the “mean Cmax lower than value observed for Form A” value is on record as “approximately 15%”; the “lower bound of 90% confidence interval for ratio of central values, AUC” value is less than 0.80; the “lower bound of 90% confidence interval for ratio of central values, AUC∞” value was less than 0.80; the “lower bound of 90% confidence interval for ratio of central values, Cmax” value is less than 0.80. In series [3], the “AUCt, Point Estimate (ratio of central values) vs. Regimen A” value is reported as 0.8288; the “AUC∞, Point Estimate (ratio of central values) vs. Regimen A” value was 0.8456; the “Cmax, Point Estimate (ratio of central values) vs. Regimen A” value is on record as 0.8456. Further, in series [3] (setting [6]), the “t1/2z, harmonic mean” value was “(7.29) h”; the “tlag, Mean” value is reported as 1.18 h; the “tmax, Mean” value is 4.01 h. Moreover, in series [3] (setting [7]), the “AUCt, Mean” value was determined as 4256.66 ng·h/mL; the “AUC∞, Mean” value came out at 4672.37 ng·h/mL; the “CL/F, Mean” value is listed as 11.29 L/h; the “Cmax, Mean” value is given as 554.18 ng/mL. For the same compound, the “t1/2z, arithmetic mean” value in series [3] (setting [7]) was 9.66 h.

Consider `COc1ccnc(C[S+]([O-])c2nc3cc(-n4cccc4)ccc3[nH]2)c1C` (stereo not shown) [ilaprazole, 2[[(4-methoxy-3-methyl-2-pyridinyl)-methyl]sulfinyl]-5-(1H-pyrrol-1-yl) 1H-Benzimidazole], for which the “suppression of gastric acid” value in the series with gastric acid (Phase 1 clinical studies, at the doses studied) was “suppression of gastric acid occurs over a 24-hour period”. In addition, the “healing of acid-related gastric and duodenal ulcers” value in the series with gastric acid (Phase 2 clinical studies) was “promoted rapid healing”. Also, the symptomatic relief result with gastric acid (Phase 2 clinical studies, patients with gastric-acid related disorders) is “provided symptomatic relief”.

As to `COc1ccnc(C[S+]([O-])c2nc3cc(-n4cccc4)ccc3[nH]2)c1C` (racemic) [Form I, 2[[(4-methoxy-3-methyl-2-pyridinyl)-methyl]sulfinyl]-5-(1H-pyrrol-1-yl) 1H-Benzimidazole], in series [2], the “weight loss at 5% RH” value worked out at 0.1%, the “weight loss from 95 to 5% RH” value worked out at 4.2% and the “weight gain from 5 to 95% RH” value worked out at 4.2%.

Regarding `COc1ccnc(C[S+]([O-])c2nc3cc(-n4cccc4)ccc3[nH]2)c1C` (racemic) [Form A, 2[[(4-methoxy-3-methyl-2-pyridinyl)-methyl]sulfinyl]-5-(1H-pyrrol-1-yl) 1H-Benzimidazole], in series [1], the “relative solubility in aqueous solutions/solvents” value is listed as “A<F<B; also recorded: least soluble in aqueous solutions”. In addition, in series [4], the “thermodynamic stability among crystalline forms” value was “most thermodynamically stable”. In addition, in series [2], the hygroscopicity result was “not hygroscopic”, the “weight loss at 5% RH” value is recorded as 0.06%, the “weight loss from 95 to 5% RH” value is reported as 0.13% and the “weight gain from 5 to 95% RH” value stood at 0.10%. For the same compound, in series [3] (setting [8]), the total exposure AUC(0-inf) (commonly the area under the concentration-time curve extrapolated to infinity) is 5450 ng·h/mL; the AUC(0-t) (as a rule, exposure summed from dosing to a finite time, without extrapolation to infinity) is 5070 ng·h/mL; the Cmax (in general, the peak of the concentration-time curve) amounted to 652 ng/mL; the Tmax (usually the time at which the peak concentration occurs) came out at 4.14 h. Besides, in series [3] (human, plasma, po, 40 mg, plasma ilaprazole, healthy adult subjects, single 40 mg oral dose (table title; text: 40 mg delayed-release tablet), fasted, read-out: Vz/F, Mean), the Vd/F was 112 L. For the same compound, in series [3] (setting [6]), the “t1/2z, harmonic mean” value was “(6.95) h” and the “tlag, Mean” value is 1.16 h. In series [3] (setting [7]), the “CL/F, Mean” value worked out at 9.34 L/h and the “t1/2z, arithmetic mean” value was 8.89 h. For the same compound, in series [3], the “mean AUC, rank among forms” value is “highest”; the “mean Cmax, rank among forms” value is on record as “highest”; the “mean apparent oral clearance, rank among forms” value is “lowest”; the “mean apparent volume of distribution, rank among forms” value is reported as “lowest”.

As for `COc1ccnc(C[S+]([O-])c2nc3cc(-n4cccc4)ccc3[nH]2)c1C` (racemic) [Form B, 2[[(4-methoxy-3-methyl-2-pyridinyl)-methyl]sulfinyl]-5-(1H-pyrrol-1-yl) 1H-Benzimidazole], the “dissolution of delayed release tablet, relative” value in series [5] was “relatively slower dissolution profile; also recorded: slower to wet and dissolve in the dissolution buffer than Form A and Form F”. The “relative solubility in aqueous solutions/solvents” value in series [1] is listed as “A<F<B; also recorded: more soluble in aqueous solvents than Form A”. The “long term stability or shelf life” value in series [4] is “good long term stability or shelf life”. In addition, in series [2], the hygroscopicity entry is “not hygroscopic”, the “weight loss at 5% RH” value was found to be 0.03%, the “weight loss from 95 to 5% RH” value was 0.00% and the “weight gain from 5 to 95% RH” value is recorded as 0.04%. Also, in series [3], the “AUC lower than Form A, point estimate” value is on record as approximately 24%; the “Cmax lower than Form A, point estimate” value was “approximately 17%”; the “half-life, relative” value is reported as “greater half-life than Form A”; the “mean AUC∞ lower than value observed for Form A” value is recorded as approximately 25%. For the same compound, in series [3], the “mean Cmax lower than value observed for Form A” value was “approximately 20%”; the “lower bound of 90% confidence interval for ratio of central values, AUC” value is on record as less than 0.80; the “lower bound of 90% confidence interval for ratio of central values, AUC∞” value is on record as less than 0.80; the “lower bound of 90% confidence interval for ratio of central values, Cmax” value was less than 0.80. In addition, in series [3], the “AUCt, Point Estimate (ratio of central values) vs. Regimen A” value is listed as 0.7630; the “AUC∞, Point Estimate (ratio of central values) vs. Regimen A” value is on record as 0.7609; the “Cmax, Point Estimate (ratio of central values) vs. Regimen A” value was 0.8292; the “mean AUC, rank among forms” value was “lowest”. For the same compound, in series [3], the “mean Cmax, rank among forms” value was “lowest”; the “mean apparent oral clearance, rank among forms” value is “highest”; the “mean apparent volume of distribution, rank among forms” value is listed as “highest”. In addition, in series [3] (setting [6]), the “t1/2z, harmonic mean” value is on record as “(7.76) h”; the “tlag, Mean” value worked out at 1.22 h; the “tmax, Mean” value was determined as 3.50 h. Further, in series [3] (setting [7]), the “AUCt, Mean” value came to 3812.50 ng·h/mL; the “AUC∞, Mean” value is 4087.99 ng·h/mL; the “CL/F, Mean” value turned out to be 11.70 L/h; the “Cmax, Mean” value was determined as 522.51 ng/mL. Also, the “t1/2z, arithmetic mean” value in series [3] (setting [7]) was 9.48 h.
